In ChEMBL document CHEMBL1201862, “PubChem BioAssay data set” (2004):
Counter-ions that a name gives are not always drawn. Active and inactive are the calls of the source.

Experiments:
[1] = biological target: Cytochrome P450 2C19 (Homo sapiens, UniProt P33261); assay: Cytochrome panel assay with activity outcomes. Panel member name: p450-cyp2c19 Compounds with AC50 equal or less than 10 uM are considered active; type: functional
[2] = biological target: Cytochrome P450 3A4 (Homo sapiens, UniProt P08684);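 note: CYP3A4 tested as one member of a cytochrome P450 panel screen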
Chain of Cytochrome P450 3A4 (P08684 whole entry): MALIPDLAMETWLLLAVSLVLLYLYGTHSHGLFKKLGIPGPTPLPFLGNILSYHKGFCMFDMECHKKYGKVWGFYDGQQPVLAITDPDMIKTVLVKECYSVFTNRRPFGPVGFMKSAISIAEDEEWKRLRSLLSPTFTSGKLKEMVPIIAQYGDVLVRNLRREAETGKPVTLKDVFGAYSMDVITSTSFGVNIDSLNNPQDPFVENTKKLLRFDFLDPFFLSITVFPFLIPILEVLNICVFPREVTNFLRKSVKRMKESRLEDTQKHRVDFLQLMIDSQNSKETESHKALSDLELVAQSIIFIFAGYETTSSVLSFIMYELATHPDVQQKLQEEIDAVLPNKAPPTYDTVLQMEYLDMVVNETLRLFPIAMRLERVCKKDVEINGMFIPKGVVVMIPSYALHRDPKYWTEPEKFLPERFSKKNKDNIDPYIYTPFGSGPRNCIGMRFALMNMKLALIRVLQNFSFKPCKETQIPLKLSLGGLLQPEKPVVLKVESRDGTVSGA

[3] = biological target: Luciferin 4-monooxygenase (Photinus pyralis, UniProt P08659); assay: inhibition of purified Photinus pyralis luciferase – biochemical, luminescence, dose response (AID 1891)
Chain of Luciferin 4-monooxygenase (P08659 whole entry): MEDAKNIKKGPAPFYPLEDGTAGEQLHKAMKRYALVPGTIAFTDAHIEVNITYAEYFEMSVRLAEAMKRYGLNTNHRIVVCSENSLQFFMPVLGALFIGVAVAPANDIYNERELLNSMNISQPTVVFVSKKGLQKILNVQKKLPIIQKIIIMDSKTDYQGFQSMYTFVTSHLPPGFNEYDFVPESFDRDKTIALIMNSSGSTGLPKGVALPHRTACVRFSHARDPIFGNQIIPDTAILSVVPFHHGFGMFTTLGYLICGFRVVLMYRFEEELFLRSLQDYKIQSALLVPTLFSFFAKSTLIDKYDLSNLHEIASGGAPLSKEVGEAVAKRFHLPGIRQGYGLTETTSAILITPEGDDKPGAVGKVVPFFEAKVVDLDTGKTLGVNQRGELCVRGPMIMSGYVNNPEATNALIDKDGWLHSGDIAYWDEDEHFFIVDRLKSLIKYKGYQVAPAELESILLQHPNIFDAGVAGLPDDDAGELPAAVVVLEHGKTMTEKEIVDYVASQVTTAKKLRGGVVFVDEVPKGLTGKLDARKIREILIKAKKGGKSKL

[4] = Luminescence Cell-Based Dose Confirmation HTS to Identify Inhibitors of Platelet Dense Granule Release. [Related pubchem assays: 1663 (Primary HTS), 1678 (Summary of Project)]; type: functional
[5] = Luminescence Cell-Based Dose Retest to Confirm Inhibitors of Cancer Stem Cells. [Related pubchem assays (depositor defined):AID2717, AID2721]; type: functional; settings: Homo sapiens
[6] = Trypanosoma cruzi growth suppression in host cells – NIH3T3 host cells, beta-gal luminescence, confirmation (AID 2044); type: functional, cell-based;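 note: intracellular parasites grown in NIH/3T3 mouse fibroblasts as host cells; luminescent beta-galactosidase reporter signal from transgenic T. cruzi replicating inside host cells; inhibitors lower the luminescence signal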
[7] = NIH3T3 cell viability loss – ATP luminescence, mouse fibroblasts, counter-screen, dose response (AID 2010); type: functional, cell-based;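 note: cells exposed to compound for about 90 hours before reading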
[8] = biological target: Cytochrome P450 2C9 (Homo sapiens, UniProt P11712)
Chain of Cytochrome P450 2C9 (P11712 whole entry): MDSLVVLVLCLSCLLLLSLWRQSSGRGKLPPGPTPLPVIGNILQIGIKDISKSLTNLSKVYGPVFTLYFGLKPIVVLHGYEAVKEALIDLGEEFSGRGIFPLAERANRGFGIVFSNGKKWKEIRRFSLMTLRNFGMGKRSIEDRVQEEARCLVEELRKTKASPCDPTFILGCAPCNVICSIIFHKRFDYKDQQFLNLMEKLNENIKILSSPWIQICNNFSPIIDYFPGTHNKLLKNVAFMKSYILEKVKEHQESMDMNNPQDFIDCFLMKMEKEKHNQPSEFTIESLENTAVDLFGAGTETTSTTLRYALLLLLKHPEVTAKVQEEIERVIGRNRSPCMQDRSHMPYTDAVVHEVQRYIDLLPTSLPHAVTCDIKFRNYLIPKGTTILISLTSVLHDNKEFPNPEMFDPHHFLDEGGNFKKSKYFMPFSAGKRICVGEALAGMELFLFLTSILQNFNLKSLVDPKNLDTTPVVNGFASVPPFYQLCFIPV

[9] = biological target: T1, Replicative DNA helicase DnaB (Mycobacterium tuberculosis, UniProt P9WMR3); assay: DnaB intein splicing inhibitors, dose response, biochemical, cell-free fluorescence (AID 449749); type: functional
T1 sequence (P9WMR3 whole entry): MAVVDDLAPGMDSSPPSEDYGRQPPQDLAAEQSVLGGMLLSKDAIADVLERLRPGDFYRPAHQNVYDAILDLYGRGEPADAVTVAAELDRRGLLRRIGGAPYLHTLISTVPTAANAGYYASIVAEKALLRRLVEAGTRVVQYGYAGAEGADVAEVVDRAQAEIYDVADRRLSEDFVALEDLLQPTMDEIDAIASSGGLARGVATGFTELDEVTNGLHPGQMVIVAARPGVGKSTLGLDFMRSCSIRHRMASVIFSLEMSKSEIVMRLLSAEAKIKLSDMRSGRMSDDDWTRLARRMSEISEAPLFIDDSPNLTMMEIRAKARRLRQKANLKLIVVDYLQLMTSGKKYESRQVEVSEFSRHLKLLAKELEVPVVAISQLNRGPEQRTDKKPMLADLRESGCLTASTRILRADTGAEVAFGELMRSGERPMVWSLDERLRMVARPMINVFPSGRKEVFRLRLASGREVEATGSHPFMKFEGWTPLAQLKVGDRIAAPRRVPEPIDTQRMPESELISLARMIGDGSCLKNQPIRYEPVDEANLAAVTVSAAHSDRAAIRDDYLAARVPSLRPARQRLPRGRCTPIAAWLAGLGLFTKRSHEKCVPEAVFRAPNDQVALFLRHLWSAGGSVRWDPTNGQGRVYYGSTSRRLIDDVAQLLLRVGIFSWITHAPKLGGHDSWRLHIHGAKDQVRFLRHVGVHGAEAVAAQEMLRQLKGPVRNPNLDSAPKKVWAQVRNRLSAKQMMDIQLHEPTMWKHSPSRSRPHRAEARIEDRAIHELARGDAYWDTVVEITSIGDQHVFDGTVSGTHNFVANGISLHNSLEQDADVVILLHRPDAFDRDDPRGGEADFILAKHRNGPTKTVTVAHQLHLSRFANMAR

[10] = biological target: T2, Protein RecA (Mycobacterium tuberculosis, UniProt P9WHJ3); assay: Fluorescence Cell-Free Homogeneous Dose Retest to Identify Inhibitors of RecA-Intein Splicing Activity. [Related pubchem assays (depositor defined):AID2097, AID2223, AID489010, AID492950]; type: functional
T2 sequence (P9WHJ3 whole entry): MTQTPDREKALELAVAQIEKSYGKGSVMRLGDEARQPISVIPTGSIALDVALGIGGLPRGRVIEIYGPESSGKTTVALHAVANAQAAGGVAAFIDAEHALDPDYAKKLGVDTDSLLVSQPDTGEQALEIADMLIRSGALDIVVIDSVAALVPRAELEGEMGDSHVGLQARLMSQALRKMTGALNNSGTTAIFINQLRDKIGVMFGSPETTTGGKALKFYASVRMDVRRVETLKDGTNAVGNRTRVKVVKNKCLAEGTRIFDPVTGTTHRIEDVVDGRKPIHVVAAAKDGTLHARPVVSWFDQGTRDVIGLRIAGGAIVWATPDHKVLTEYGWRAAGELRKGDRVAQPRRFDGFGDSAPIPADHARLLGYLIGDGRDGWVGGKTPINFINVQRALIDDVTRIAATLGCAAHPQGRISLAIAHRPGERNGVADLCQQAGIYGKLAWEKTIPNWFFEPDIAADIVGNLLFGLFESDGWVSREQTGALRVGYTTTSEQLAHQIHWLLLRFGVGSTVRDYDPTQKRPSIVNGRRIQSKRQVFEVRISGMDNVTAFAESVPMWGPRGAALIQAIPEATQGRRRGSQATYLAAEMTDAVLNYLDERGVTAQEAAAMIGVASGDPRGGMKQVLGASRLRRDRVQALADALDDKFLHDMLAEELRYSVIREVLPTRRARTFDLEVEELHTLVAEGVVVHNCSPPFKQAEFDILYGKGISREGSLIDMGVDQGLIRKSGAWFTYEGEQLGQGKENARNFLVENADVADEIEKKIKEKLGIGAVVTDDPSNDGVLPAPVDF

[11] = viability of uninfected HEp-2 cells – cell-based, HTS, cytotoxicity control for RSV inhibitor project, dose response (AID 2410); type: functional; settings: human respiratory syncytial virus
[12] = test system: INS1; assay: INS-1E survival protection against cytokine death – cell-based, luminescence, retest, dose response (AID 449756); type: functional; settings: Rattus norvegicus;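 note: cell death triggered by IL-1 beta plus TNF-alpha plus IFN-gamma mixture; protective hits raise ATP signal compared with cytokine alone wells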

Chain of Cytochrome P450 2C19 (P33261 whole entry): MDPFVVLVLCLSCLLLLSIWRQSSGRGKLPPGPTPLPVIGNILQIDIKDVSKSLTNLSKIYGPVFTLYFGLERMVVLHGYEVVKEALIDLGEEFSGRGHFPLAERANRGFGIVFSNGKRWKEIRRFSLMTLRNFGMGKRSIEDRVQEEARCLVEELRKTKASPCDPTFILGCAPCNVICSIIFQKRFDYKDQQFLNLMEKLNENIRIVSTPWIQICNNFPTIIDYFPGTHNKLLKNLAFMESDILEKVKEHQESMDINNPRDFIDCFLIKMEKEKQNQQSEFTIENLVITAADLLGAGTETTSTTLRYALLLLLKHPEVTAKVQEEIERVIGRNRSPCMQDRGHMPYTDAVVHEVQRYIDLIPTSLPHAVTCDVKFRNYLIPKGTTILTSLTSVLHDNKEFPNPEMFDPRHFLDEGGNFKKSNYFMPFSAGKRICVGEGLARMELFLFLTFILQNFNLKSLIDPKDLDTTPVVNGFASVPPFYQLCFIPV

CCOC(=O)C1CCCN(C(=O)C2CCN(S(=O)(=O)N3CCC4(CC3)OCCO4)CC2)C1 (stereo not drawn)
AC50 ([1]; read-out: AC50): 35.5 µM (inconclusive) | AC50 [2]: 20 µM (inconclusive)

Cc1ccc(C2CCN(C(=O)Nc3ccccc3)C2)cc1 (stereo not drawn)
EC50 [3]: > 112 µM (not active) | EC50 [4]: > 112 µM (not active)

C[C@H](CO)N1C[C@H](C)[C@H](CN(C)Cc2ccc(-c3ccccc3)cc2)Oc2ccc(NS(=O)(=O)c3ccccc3)cc2CC1=O
AC50 [5]: 5.07 µM (active)

COc1cc2cc(CN(CCCO)S(=O)(=O)c3ccccc3Cl)c(O)nc2cc1OC
AC50 ([1]; read-out: AC50): 39.8 µM (inconclusive)

COC(=O)c1ccccc1Oc1cc(C(F)(F)F)nc(-c2ccccn2)n1
EC50 [3]: > 112 µM (not active) | EC50 [4]: > 112 µM (not active)

CCOC(=O)c1c(NC(=O)CSc2nc3cc(C)ccc3[nH]2)sc2c1CC(C)(C)NC2(C)C
EC50 [6]: 0.855 µM (active) | EC50 [7]: 18.6 µM (active) | AC50 [5]: 7.46 µM (active)

Sc1nnc(-c2ccncc2)n1CC1CCCO1 (stereo not drawn)
AC50 ([1]; read-out: AC50): 31.6 µM (inconclusive) | AC50 [2]: 22.4 µM (inconclusive) | AC50 [8]: 28.2 µM (inconclusive)

CCOc1ccc(/C=N/NC(=O)c2ccoc2C)cc1OC
EC50 [3]: 28.3 µM (active) | EC50 [4]: 6.04 µM (active)

Cc1cccc(/N=C2\C(Cl)=C(O)OC2OC(=O)c2ccco2)c1 (stereo not drawn)
AC50 [9]: 13.8 µM (active) | EC50 [10]: 12.9 µM (active)

COc1ccc(-c2[nH]nc3c2C(c2ccncc2)C(C#N)=C(N)O3)cc1 (stereo not drawn)
AC50 [9]: 8.02 µM (active) | EC50 [10]: 2.26 µM (active)

Cc1nc2cnc(Oc3ccccc3)nc2n(-c2ccccc2)c1=O
AC50 [2]: 25.1 µM (inconclusive) | AC50 [8]: 25.1 µM (inconclusive)

CCOC(=O)c1cn(-c2nc(-c3ccc(Cl)cc3)cs2)c2c(F)c(N3CC(C)OC(C)C3)c(F)cc2c1=O (stereo not drawn)
AC50 ([1]; read-out: AC50): 17.8 µM (inconclusive)

CC(/C=C/c1ccco1)=N/NC(=O)c1ccccc1Cl
AC50 ([1]; read-out: AC50): 39.8 µM (inconclusive) | AC50 [2]: 31.6 µM (inconclusive)

COC(=O)c1ccc(/C=C/c2c(-c3ccc(OC)cc3)oc3ccc(N4CCOCC4)cc23)cc1
AC50 [5]: 2 µM (active)

COCCSc1ccccc1C(=O)Nc1ccc2c(c1)OCO2
EC50 [3]: > 112 µM (not active) | EC50 [4]: > 112 µM (not active)

C#CCOc1ccc(OC)cc1C(c1c(C)n[nH]c1O)c1c(C)n[nH]c1O
AC50 [9]: 0.405 µM (active) | EC50 [10]: 0.187 µM (active)

O=c1nc(-c2ccccc2)n(-c2ccccc2)c2ncccc12
AC50 ([1]; read-out: AC50): 22.4 µM (inconclusive)

Cc1cc(C)n(C(=O)c2cccc(S(=O)(=O)N3CCCCC3)c2)n1
EC50 [3]: > 112 µM (not active) | EC50 [4]: > 112 µM (not active)

CCc1[nH]nc2c1C(Cc1ccccc1)C(C#N)=C(N)O2 (stereo not drawn)
AC50 [9]: 22.3 µM (active) | EC50 [10]: 6.37 µM (active)

O=C(Nc1ccccc1C(=O)N/N=C/c1ccco1)c1ccc(Cl)cc1
EC50 [3]: 0.192 µM (active) | EC50 [4]: 10.9 µM (active)

O=C(/C=C/c1ccco1)NCC1OCCc2ccccc21 (stereo not drawn)
AC50 [5]: > 195 µM (inactive)

Nc1cc(-c2ccccc2)nn1Cc1ccc(Cl)cc1
EC50 [3]: > 112 µM (not active) | EC50 [4]: > 112 µM (not active)

CCn1c(S)nnc1-c1ccoc1C
AC50 ([1]; read-out: AC50): 28.2 µM (inconclusive) | AC50 [8]: 31.6 µM (inconclusive)

O=C(Nc1ccc(S(=O)(=O)NCc2ccco2)cc1)c1ccc(F)cc1
EC50 [3]: > 112 µM (not active) | EC50 [4]: > 112 µM (not active)

CCC(C)OC(=O)C1=C(C)OC23OC(N)=C(C#N)C12C(=O)c1ccccc13 (stereo not drawn)
EC50 [3]: > 112 µM (not active) | EC50 [4]: > 112 µM (not active)

O=C(c1ccccc1NS(=O)(=O)c1cccc([N+](=O)[O-])c1)N1CCOCC1
AC50 [2]: 17.8 µM (inconclusive) | AC50 [8]: 7.94 µM (inconclusive)

FC(F)(F)c1nnc(-c2ccccc2)nc1Oc1ccc(Cl)cc1Cl
CC50 [11]: 31.4 µM (active) | AC50 [9]: 1.44 µM (active) | EC50 [10]: 0.481 µM (active)

CCOC(=O)CN1C(=O)C(O)=C(C(C)=O)C1c1ccc(F)cc1 (stereo not drawn)
EC50 [3]: > 112 µM (not active) | EC50 [4]: > 112 µM (not active)

N=C1O[C@@H](c2c[nH]c3ccc(OCc4ccccc4)cc23)C(O)=C1O
AC50 ([1]; read-out: AC50): 6.31 µM (inconclusive) | AC50 [2]: 3.16 µM (inconclusive)

C[Se]C[C@@H](N)C(=O)O
AC50 [1]: inconclusive | AC50 [2]: 1.26 µM (inconclusive)

Cc1c(O)cccc1C(=O)N[C@@H](CSc1ccccc1)[C@H](O)CN1C[C@H]2CCCC[C@H]2C[C@H]1C(=O)NC(C)(C)C [NELFINAVIR MESYLATE]
AC50 [5]: 4.22 µM (active)

Cc1ccc(S(=O)(=O)Nc2ccc(C(OC(=O)c3ccccc3[N+](=O)[O-])(C(F)(F)F)C(F)(F)F)cc2)cc1
AC50 [5]: 6.11 µM (active) | AC50 [12]: 14.3 µM (active)

COCCN(C(=O)COC(=O)CCc1nc2ccccc2s1)c1c(N)n(Cc2ccccc2)c(=O)[nH]c1=O
EC50 [3]: > 112 µM (not active) | EC50 [4]: > 112 µM (not active)

Cn1cc(/C=N/n2cnc3sc4c(c3c2=O)CCCC4)c2ccccc21
AC50 [2]: 22.4 µM (inconclusive) | AC50 [8]: 39.8 µM (inconclusive)

O=C(Oc1ccc(N(C(=O)c2ccncc2)S(=O)(=O)c2ccc(Cl)cc2)cc1)c1ccncc1
AC50 [9]: 9.26 µM (active) | EC50 [10]: 16.4 µM (active)

S=C(Nc1ccccc1Cl)N(CCCN1CCOCC1)Cc1ccco1
EC50 [3]: > 112 µM (not active) | EC50 [4]: > 112 µM (not active)

COC(=O)[C@@]1(Cc2ccc(OC)cc2)[C@@H]2C(=CC(=O)[C@H]2CC(=O)C(=O)N(C)C)CN1C(=O)c1ccccc1
AC50 [2]: 2.51 µM (inconclusive) | AC50 [8]: 25.1 µM (inconclusive)

COc1nc(C(=N)NO)nc(N2CCCCC2)n1
AC50 ([1]; read-out: AC50): 39.8 µM (inconclusive)

CC(C)C(=O)Nc1ccc(NC(=S)NC(=O)c2ccccc2F)cc1
EC50 [3]: > 112 µM (not active) | EC50 [4]: > 112 µM (not active)
